Data: ChEMBL document CHEMBL5244279, “Perspectives on SARS-CoV-2 Main Protease Inhibitors” (J Med Chem, 2021)
Peptide text beside a SMILES is read from it.

Columns and labels:
[1] = Binding affinity to SARS CoV Main protease incubated for 20 mins by reverse-phase HPLC analysis; parameters: species or system Severe acute respiratory syndrome-related coronavirus
[2] = system: SARS-CoV; test: Antiviral activity against SARS CoV infected in human Calu-3 cells assessed as reduction in viral RNA replication by qPCR analysis; type: functional, organism-based; conditions: Severe acute respiratory syndrome-related coronavirus
[3] = Inhibition of SARS CoV Main protease using Dabcyl-KTSAVLQSGFRKM-E(Edans)-NH2 peptide as substrate by FRET assay; parameters: species or system Severe acute respiratory syndrome-related coronavirus
[4] = Cytotoxicity against human A549 cells assessed as reduction in cell viability by neutral red uptake assay; type: toxicity, cell-based
[5] = Cytotoxicity against dog MDCK cells assessed as reduction in cell viability by neutral red uptake assay; type: toxicity, cell-based, Canis lupus familiaris
[6] = Cytotoxicity against human Caco-2 cells assessed as reduction in cell viability by neutral red uptake assay; type: toxicity, cell-based
[7] = Cytotoxicity against African green monkey Vero cells assessed as reduction in cell viability by neutral red uptake assay; type: toxicity, cell-based; conditions: chlorocebus sabaeus
[8] = Cytotoxicity against cat CRFK cells assessed as reduction of cell viability; type: toxicity, cell-based, Felis catus
[9] = Cytotoxicity against human Huh-7 cells assessed as reduction of cell viability; type: toxicity, cell-based
[10] = Inhibition of SARS CoV Main protease by FRET assay; parameters: species or system Severe acute respiratory syndrome-related coronavirus
[11] = Cytotoxicity against mouse L929 cells assessed as reduction of cell viability; type: toxicity, cell-based
[12] = system: SARS-CoV-2; type: functional, organism-based, Vero E6; conditions: Severe acute respiratory syndrome coronavirus 2, Vero C1008
[13] = Cytotoxicity against human HCT-8 cells assessed as reduction in cell viability by neutral red uptake assay; type: toxicity, cell-based
[14] = molecular target: T1, Replicase polyprotein 1ab (Severe acute respiratory syndrome coronavirus 2, UniProt P0DTD1); test: Inhibition of SARS CoV-2 Main protease using MCA-AVLQSGFR-Lys(DNP)-Lys-NH2 peptide as substrate by fluorescence based analysis
[15] = system: SARS-CoV; type: functional, organism-based, Vero E6; conditions: Severe acute respiratory syndrome-related coronavirus, 2019-nCoV/USA_WA1/2020, Vero C1008, 72 h
[16] = Cytotoxicity against African green monkey Vero E6 cells assessed as reduction of cell viability by CellTiterGlo assay; type: toxicity, cell-based, Vero C1008; conditions: chlorocebus sabaeus
[17] = Inhibition of SARS CoV Main protease using 2-aminobenzoyl-SVTLQSG-Tyr(NO2)-R peptide as substrate by FRET assay; parameters: species or system Severe acute respiratory syndrome-related coronavirus
[18] = molecular target: T1, Replicase polyprotein 1ab; test: Inhibition of N-terminal MBP-tagged SARS CoV-2 Main protease by fluorescence based analysis
[19] = Oral bioavailability in Sprague-Dawley rat; type: ADME, organism-based; conditions: in vivo
[20] = system: SARS-CoV-2; type: functional, organism-based, Vero E6; conditions: Severe acute respiratory syndrome coronavirus 2, strain 107, Vero C1008
[21] = Binding affinity to SARS CoV Main protease incubated for 10 mins by FRET assay; parameters: species or system Severe acute respiratory syndrome-related coronavirus
[22] = Cytotoxicity against African green monkey Vero E6 cells assessed as reduction of cell viability by XTT assay; type: toxicity, cell-based, Vero C1008; conditions: chlorocebus sabaeus
[23] = Clearance in Beagle dog at 5 mg/kg, iv measured upto 24 hrs by LC-MS/MS analysis; type: ADME, organism-based, Canis lupus familiaris; conditions: in vivo
[24] = Half life in Sprague-Dawley rat at 10 mg/kg, iv measured upto 24 hrs by LC-MS/MS analysis; type: ADME, organism-based; conditions: in vivo
[25] = AUC in Sprague-Dawley rat at 10 mg/kg, iv measured upto 24 hrs by LC-MS/MS analysis; type: ADME, organism-based; parameters: time < 24 hrs, dose 10 mg/kg, route iv; conditions: in vivo
[26] = Half life in Beagle dog at 5 mg/kg, iv measured upto 24 hrs by LC-MS/MS analysis; type: ADME, organism-based, Canis lupus familiaris; conditions: in vivo
[27] = Clearance in Sprague-Dawley rat at 10 mg/kg, iv measured upto 24 hrs by LC-MS/MS analysis; type: ADME, organism-based; conditions: in vivo
[28] = AUC in Beagle dog at 5 mg/kg, iv measured upto 24 hrs by LC-MS/MS analysis; type: ADME, organism-based, Canis lupus familiaris; parameters: time < 24 hrs, dose 5 mg/kg, route iv; conditions: in vivo
[29] = Binding affinity to SARS CoV N-terminal his-tagged Main protease using Dabcyl-KTSAVLQSGFRKME-Edan peptide as substrate by fluorescence based analysis; parameters: species or system Severe acute respiratory syndrome-related coronavirus
[30] = Inhibition of SARS CoV N-terminal his-tagged Main protease using Dabcyl-KTSAVLQSGFRKME-Edan peptide as substrate by fluorescence based analysis; parameters: species or system Severe acute respiratory syndrome-related coronavirus
[31] = system: SARS-CoV-2; test: Antiviral activity against SARS CoV-2 assessed as inhibition of viral growth; type: functional, organism-based; conditions: Severe acute respiratory syndrome coronavirus 2
[32] = Toxicity in rat assessed as median lethal dose; conditions: in vivo, read-out: MLD
[33] = Drug concentration in mouse lung at 20 mg/kg, sc; type: ADME, organism-based; conditions: in vivo
[34] = Half life in mouse at 20 mg/kg, sc; type: ADME, organism-based; conditions: in vivo
[35] = Mean residence time in mouse at 20 mg/kg, sc; type: ADME, organism-based; conditions: in vivo
[36] = system: SARS-CoV; test: microbe, parasite or virus in culture; conditions: Severe acute respiratory syndrome-related coronavirus, Vero C1008, 48 h
[37] = Cytotoxicity against African green monkey Vero E6 cells assessed as reduction of cell viability by CCK8 assay; type: toxicity, cell-based, Vero C1008; conditions: chlorocebus sabaeus
[38] = Inhibition of SARS CoV Main protease using MCA-AVLQSGFR-Lys(DNP)-Lys-NH2 peptide as substrate by fluorescence based analysis; parameters: species or system Severe acute respiratory syndrome-related coronavirus

CC(C)C[C@H](NC(=O)[C@@H](NC(=O)OCc1ccccc1)[C@@H](C)OC(C)(C)C)C(=O)N[C@H](/C=C/C(=O)C1CC1)C[C@@H]1CCNC1=O
Ki [1]: 99 nM

O=C(/C=C/c1ccccc1)N[C@@H](CC1CC1)C(=O)N[C@@H](C[C@@H]1CCNC1=O)C(=O)C(=O)NCc1ccccc1
EC50 [2]: 1900 nM
IC50 [3]: 240 nM

CCC[C@H](NC(=O)[C@H](CC(C)C)NC(=O)OCc1ccccc1)C(=O)C(=O)NCc1ccccn1
CC50 [4]: > 100000 nM
CC50 [5]: > 100000 nM
CC50 [6]: > 100000 nM
CC50 [7]: > 100000 nM

CC(C)C[C@H](NC(=O)OC1CCC(F)(F)CC1)C(=O)N[C@H](C=O)C[C@@H]1CCNC1=O
CC50 [8]: > 100000 nM
CC50 [9]: > 100000 nM
IC50 [10]: 480 nM
CC50 [11]: > 100000 nM
IC50 [12]: 2300 nM

CC(C)C[C@H](NC(=O)OCC1CCC(F)(F)CC1)C(=O)N[C@@H](C[C@@H]1CCNC1=O)C(O)S(=O)(=O)O (stereo partly specified)
CC50 [8]: > 100000 nM
CC50 [13]: > 100000 nM
CC50 [9]: > 100000 nM
CC50 [11]: > 100000 nM

CCOC(=O)/C=C/[C@H](C[C@@H]1CCNC1=O)NC(=O)[C@H](CC(C)C)NC(=O)[C@@H](NC(=O)OCc1ccccc1)[C@@H](C)OC(C)(C)C
IC50 [14]: 151 nM
Ki [1]: 58 nM
EC50 [15]: 2880 nM

CC(C)C[C@H](NC(=O)OC1CCC(F)(F)CC1)C(=O)N[C@@H](C[C@@H]1CCNC1=O)C(O)S(=O)(=O)O (stereo partly specified)
CC50 [8]: > 100000 nM
CC50 [13]: > 100000 nM
CC50 [9]: > 100000 nM
IC50 [10]: 2200 nM
CC50 [11]: > 100000 nM

O=C[C@H](C[C@@H]1CCNC1=O)NC(=O)[C@H](CC1CCCCC1)NC(=O)c1cc2ccccc2[nH]1
CC50 [16]: > 100000 nM
CC50 [8]: > 100000 nM
CC50 [9]: > 100000 nM
CC50 [11]: > 100000 nM

CC(C)C[C@H](NC(=O)/C=C/c1ccccc1)C(=O)N[C@@H](C[C@@H]1CCNC1=O)C(=O)C(=O)NCc1ccccc1
EC50 [2]: 7200 nM
IC50 [3]: 330 nM

O=C(Oc1cncc(Cl)c1)c1cccs1
IC50 [14]: 81 nM
IC50 [17]: 500 nM

CC(=O)N[C@H](C(=O)N[C@H](C(=O)N[C@@H](CC(C)C)C(=O)N[C@@H](CCC(=O)N(C)C)C(=O)Cn1[nH]c(=O)c2c([N+](=O)[O-])cccc2c1=O)[C@@H](C)OCc1ccccc1)C(C)C
IC50 [18]: 600 nM

CC(C)C[C@H](NC(=O)OCc1ccccc1)C(=O)N[C@@H](C[C@@H]1CCNC1=O)C(O)S(=O)(=O)O (stereo partly specified)
CC50 [16]: > 200000 nM
CC50 [8]: > 200000 nM
CC50 [9]: > 200000 nM
CC50 [11]: > 200000 nM

CC(=O)/C=C/[C@H](C[C@@H]1CCNC1=O)NC(=O)[C@H](CC(C)C)NC(=O)[C@H](CNC(=O)C(C)(C)C)NC(=O)OCc1ccccc1
Ki [1]: 38 nM

CC1(C)[C@@H]2[C@@H](C(=O)N[C@H](C=O)C[C@@H]3CCNC3=O)N(C(=O)COc3ccc(OC(F)(F)F)cc3)C[C@@H]21
bioavailability [19]: 14.6%
EC50 [20]: 860 nM

O=C[C@H](C[C@@H]1CCNC1=O)NC(=O)[C@@H]1[C@H]2CCC[C@H]2CN1C(=O)COc1ccc(Cl)cc1Cl
bioavailability [19]: 11.2%

CSCC[C@@H](C=O)NC(=O)[C@H](CC(C)C)NC(=O)[C@H](CC(C)C)NC(C)=O (Ac-Leu-Leu-Met-aldehyde)
CC50 [4]: > 100000 nM
CC50 [5]: > 100000 nM
CC50 [6]: > 100000 nM
CC50 [7]: > 100000 nM

CC(C)C[C@H](NC(=O)/C=C\c1ccccc1)C(=O)N[C@H](C=O)C[C@@H]1CCCNC1=O
Ki [21]: 53 nM

CCOC(=O)/C=C/[C@H](Cc1ccccc1)NC(=O)[C@H](Cc1ccccc1)NC(=O)/C=C\c1ccc(N(C)C)cc1
CC50 [22]: > 200000 nM
Ki [1]: 660 nM
EC50 [15]: 18000 nM

CC(C)C[C@H](NC(=O)OC1CCCCC1)C(=O)N[C@@H](C[C@@H]1CCNC1=O)C(O)S(=O)(=O)O (stereo partly specified)
CC50 [8]: > 100000 nM
CC50 [9]: > 100000 nM
IC50 [10]: 3800 nM
CC50 [11]: > 100000 nM

O=C[C@H](C[C@@H]1CCNC1=O)NC(=O)[C@H](Cc1cccc(F)c1)NC(=O)c1cc2ccccc2[nH]1
CC50 [16]: > 100000 nM
clearance [23]: 5.8 mL/min
CC50 [8]: > 100000 nM
CC50 [9]: > 100000 nM
half-life [24]: 7.6 h
AUC at 24 h [25]: 41500 ng·h/mL
half-life [26]: 5.5 h
CC50 [11]: > 100000 nM
clearance [27]: 4.01 mL/min
AUC at 24 h [28]: 14900 ng·h/mL

O=C(On1nnc2ccccc21)c1ccc2[nH]ccc2c1
Ki [29]: 7.5 nM
IC50 [30]: 200 nM

O=c1c2ccccc2[se]n1Cc1ccco1
IC50 [14]: 74 nM
Ki [14]: 31 nM
EC50 [31]: 4670 nM
LD50 [32]: > 4600 mg/kg

Cc1cc(S(=O)(=O)c2c([N+](=O)[O-])cc(C(F)(F)F)cc2[N+](=O)[O-])c(Cl)cc1Cl
IC50 [18]: 300 nM

O=c1cc(-c2ccccc2)oc2cc(O)c(O)c(O)c12 [BAICALEIN]
CC50 [16]: > 200000 nM

O=C(/C=C/c1ccccc1)N[C@@H](CC1CCCCC1)C(=O)N[C@@H](C[C@@H]1CCNC1=O)C(=O)C(=O)NCc1ccccc1
EC50 [2]: 1400 nM
IC50 [3]: 710 nM

CCCCC1CCC(OC(=O)N[C@@H](CC(C)C)C(=O)N[C@@H](C[C@@H]2CCNC2=O)C(O)S(=O)(=O)O)CC1 (stereo partly specified)
CC50 [8]: 59100 nM
CC50 [9]: 59100 nM
IC50 [10]: 1000 nM
CC50 [11]: 59100 nM

CC(C)(C)OC(=O)Nc1cccn([C@@H](CC2CC2)C(=O)N[C@@H](C[C@@H]2CCNC2=O)C(=O)C(=O)NCc2ccccc2)c1=O
Ct [33]: 13 ng/g
IC50 [3]: 900 nM
half-life [34]: 1.8 h
MRT [35]: 2.7 h

C[C@@H](OC(C)(C)C)[C@H](NC(=O)OCc1ccccc1)C(=O)N[C@@H](CC1CCCCC1)C(=O)N[C@H](C=O)C[C@@H]1CCNC1=O
Ki [21]: 53 nM
EC50 [36]: 600 nM
CC50 [37]: > 200000 nM

CCOC(=O)/C=C/[C@H](C[C@@H]1CCNC1=O)NC(=O)[C@H](CC(C)C)NC(=O)[C@@H](NC(=O)OCc1ccccc1)C(C)C
IC50 [38]: 9100 nM
Ki [1]: 520 nM
